This is an account of results in publication PMC13495017 (ACS Bio & Med Chem Au, 2026).

Common to all, as to assay type: cell-based
In one assay the target is CB1 I267L (Homo sapiens, UniProt P21554, I267L). As to the kind of experiment: BRET Gαi1 engagement, CB1 I267L mutant. To be noted: read-out: E max, CB1 I267L Gαi1 Engagement.
For another assay, the target named is CB2 L182I (Homo sapiens, UniProt P34972, L182I). Nature of the assay: BRET Gαi1 engagement, CB2 L182I mutant. To be noted: read-out: E max, CB2 L182I Gαi1 Engagement. (In general: BRET reads energy transfer from a luciferase to a nearby fluorophore.)
Sequence of CB2 L182I (P34972 whole entry L182I): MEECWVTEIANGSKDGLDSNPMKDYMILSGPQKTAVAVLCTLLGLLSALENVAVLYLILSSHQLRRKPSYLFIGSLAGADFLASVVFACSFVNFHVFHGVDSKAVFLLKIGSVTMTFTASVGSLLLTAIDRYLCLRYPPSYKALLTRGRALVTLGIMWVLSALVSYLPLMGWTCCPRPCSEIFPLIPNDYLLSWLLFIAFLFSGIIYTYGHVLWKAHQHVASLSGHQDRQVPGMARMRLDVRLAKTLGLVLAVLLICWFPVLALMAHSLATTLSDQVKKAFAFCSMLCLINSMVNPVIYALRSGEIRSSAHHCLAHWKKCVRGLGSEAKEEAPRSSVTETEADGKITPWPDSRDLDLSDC
The next assay concerns the target CB2 I110L (Homo sapiens, UniProt P34972, I110L). Nature of the assay: BRET Gαi1 engagement, CB2 I110L mutant. The conditions noted are these: read-out: E max, CB2 I110L Gαi1 Engagement.
The target of assay [1] is CB2 triple mutant (I110L/L182I/V261L) (Homo sapiens, UniProt P34972, I110L/L182I/V261L). As to the kind of experiment: BRET Gαi1 engagement, CB2 triple mutant. The conditions noted are these: read-out: E max, CB2 Triple Mutations Gαi1 Engagement.
Sequence of CB2 triple mutant (I110L/L182I/V261L) (P34972 whole entry I110L/L182I/V261L): as the sequence (P34972 whole entry L182I) above, with I110L, V261L counted along it
A further assay has as its target CB1 (Homo sapiens, UniProt P21554). Nature of the assay: BRET Gαi1 engagement, CB1 wild-type. The conditions noted are these: CB1 WT, HEK-293T, normalized against CP55940, mean ± SEM.
Assay [2] concerns the target T1, CB2 (Homo sapiens, UniProt P34972). Nature of the assay: BRET Gαi1 engagement, CB2 wild-type. To be noted: HEK-293T, read-out: E max, CB2 Gαi1 Engagement.
In assay [3] the target is T1, CB2. As to the kind of experiment: BRET β-arrestin 2 recruitment, CB2 wild-type. To be noted: HEK-293T, read-out: E max, CB2 β-Arrestin 2 Recruitment.
A further assay has as its target CB1 L193I (Homo sapiens, UniProt P21554, L193I). Nature of the assay: BRET Gαi1 engagement, CB1 L193I mutant. The conditions noted are these: read-out: E max, CB1 L193I Gαi1 Engagement.
For a further assay, the target named is CB2 V261L (Homo sapiens, UniProt P34972, V261L). As to the kind of experiment: BRET Gαi1 engagement, CB2 V261L mutant. The conditions noted are these: read-out: E max, CB2 V261L Gαi1 Engagement.
Sequence of CB2 V261L (P34972 whole entry V261L): as the sequence (P34972 whole entry L182I) above, with I182L, V261L counted along it

T1 sequence (P34972 whole entry): as the sequence (P34972 whole entry L182I) above, with I182L counted along it
Sequence of CB1 I267L (P21554 whole entry I267L): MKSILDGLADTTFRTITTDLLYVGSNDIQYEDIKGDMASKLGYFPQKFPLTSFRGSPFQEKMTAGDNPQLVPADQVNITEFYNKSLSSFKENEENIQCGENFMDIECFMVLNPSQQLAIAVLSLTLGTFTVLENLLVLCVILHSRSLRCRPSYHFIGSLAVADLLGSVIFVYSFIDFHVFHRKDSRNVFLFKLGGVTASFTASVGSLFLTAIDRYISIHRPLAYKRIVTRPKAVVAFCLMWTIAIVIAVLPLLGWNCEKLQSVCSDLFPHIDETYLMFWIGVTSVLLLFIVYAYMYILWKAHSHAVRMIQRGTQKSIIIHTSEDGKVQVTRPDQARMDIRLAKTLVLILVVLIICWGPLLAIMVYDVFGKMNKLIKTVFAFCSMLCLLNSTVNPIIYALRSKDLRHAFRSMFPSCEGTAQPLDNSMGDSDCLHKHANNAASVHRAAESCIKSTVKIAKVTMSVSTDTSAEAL
Sequence of CB1 L193I (P21554 whole entry L193I): as the sequence (P21554 whole entry I267L) above, with L193I, L267I counted along it
Sequence of CB2 I110L (P34972 whole entry I110L): as the sequence (P34972 whole entry L182I) above, with I110L, I182L counted along it
Sequence of CB1 (P21554 whole entry): as the sequence (P21554 whole entry I267L) above, with L267I counted along it

In the case of `CCCCCCC(C)(C)c1ccc([C@@H]2C[C@H](O)CC[C@H]2CCCO)c(O)c1` [CP55940], the Emax on CB1 I267L is 77.6 ± 2.5%; on CB2 L182I, 32.2 ± 2.5%; on CB2 I110L, 83.1 ± 2.8%; in assay [1] it was 3 ± 2%; on CB2 [2], 99.8 ± 2.7%; on CB2 [3] it was 99.7 ± 2.7%. The values for the Emax at CB1 L193I and at CB2 V261L were 98.2 ± 2.2% and 33.8 ± 2.6%, respectively. The “E max, CB1 Gαi1 Engagement” value at CB1 was found to be 99.4 ± 3.0%.
